Here are results for 15 compounds from patent US20240360116A1, “BICYCLIC DERIVATIVES” (ELANCO TIERGESUNDHEIT AG, priority 2020, published 2024).

Molecules are shown by their SMILES. Where “and” joins values, the source holds several entries; their conditions need not be identical. Equal entries are not always repeated. Bounds are passed on as bounds.

The test system of experiment [1] is Dirofilaria immitis microfilariae. The experiment in a line: In Vitro Assay 3: Dirofilaria immitis microfilariae (DIROIM L1). The conditions noted are these: 72 h, read-out: EC50 (reduction of motility).
Another experiment concerns the target D. immitis Slo-1 (Dirofilaria immitis, UniProt I0DFK5). The experiment in a line: In Vitro Assay 2: D. immitis Slo-1 recombinant CHO cell line, membrane potential. The experiment is classed as cell-based. As to conditions: EC50, CHO cells expressing D. immitis Slo-1, voltage sensitive dye, FLIPR Tetra, 70 mM KCl.
In experiment [2] the test system is Adult Nippostrongylus brasiliensis. Kind of experiment: In Vitro Assay 5: Nippostrongylus brasiliensis (NIPOBR), acetylcholine esterase readout. As to conditions: adult worms, tested at 10, 1 and 0.1 ppm, vs negative control. As to the method: Adult Nippostrongylus brasiliensis were washed with saline buffer containing 100 U/ml penicillin, 0.1 mg/ml streptomycin and 2.5 μg/ml amphotericin B. Test compounds were dissolved in DMSO and worms were incubated in medium in a final concentration of 10 μg/ml (10 ppm), 1 μg/ml (1 ppm) and 0.1 μg/ml (0.1 ppm) respectively. An aliquot of the medium was used to determine the acetylcholine esterase activity in comparison to a negative control. The principle of measuring acetylcholine esterase as readout for anthelmintic activity was described in Rapson et al (1986) and Rapson et al (1987).
Based on the evaluation of a wide concentration range, concentration-response curves as well as EC50-values were calculated.

The test system of experiment [3] is Dirofilaria immitis third-stage larvae. The experiment in a line: In Vitro Assay 4: Dirofilaria immitis (DIROIM L4). The conditions noted are these: 72 h, read-out: EC50 (reduction of motility).

Chain of D. immitis Slo-1 (I0DFK5 1-1119): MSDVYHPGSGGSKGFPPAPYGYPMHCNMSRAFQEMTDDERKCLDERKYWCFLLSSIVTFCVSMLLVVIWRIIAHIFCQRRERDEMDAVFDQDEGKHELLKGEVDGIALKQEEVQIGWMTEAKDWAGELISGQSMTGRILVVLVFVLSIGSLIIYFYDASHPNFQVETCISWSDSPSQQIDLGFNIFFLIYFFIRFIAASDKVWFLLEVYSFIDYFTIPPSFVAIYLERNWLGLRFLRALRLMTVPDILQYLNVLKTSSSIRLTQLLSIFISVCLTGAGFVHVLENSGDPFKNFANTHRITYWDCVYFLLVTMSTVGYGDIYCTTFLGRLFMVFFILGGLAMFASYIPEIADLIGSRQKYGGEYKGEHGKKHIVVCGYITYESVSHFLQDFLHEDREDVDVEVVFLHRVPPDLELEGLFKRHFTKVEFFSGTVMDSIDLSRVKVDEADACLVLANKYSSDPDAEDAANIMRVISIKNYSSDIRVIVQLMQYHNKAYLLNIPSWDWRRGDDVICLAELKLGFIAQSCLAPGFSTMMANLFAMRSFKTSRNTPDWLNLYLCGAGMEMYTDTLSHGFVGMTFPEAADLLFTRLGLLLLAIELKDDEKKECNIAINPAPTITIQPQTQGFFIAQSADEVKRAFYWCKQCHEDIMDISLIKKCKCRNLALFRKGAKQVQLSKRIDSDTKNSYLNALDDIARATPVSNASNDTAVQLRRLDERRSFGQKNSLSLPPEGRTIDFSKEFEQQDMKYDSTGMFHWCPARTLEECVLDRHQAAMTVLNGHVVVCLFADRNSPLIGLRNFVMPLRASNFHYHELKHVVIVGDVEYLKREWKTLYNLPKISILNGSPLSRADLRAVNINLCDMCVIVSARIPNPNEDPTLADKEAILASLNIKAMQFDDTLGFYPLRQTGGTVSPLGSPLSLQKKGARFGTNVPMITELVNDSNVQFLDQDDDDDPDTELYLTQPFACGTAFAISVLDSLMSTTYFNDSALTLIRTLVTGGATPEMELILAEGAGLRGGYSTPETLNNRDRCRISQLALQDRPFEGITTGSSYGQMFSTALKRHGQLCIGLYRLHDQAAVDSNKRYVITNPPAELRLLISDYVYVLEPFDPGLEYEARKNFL

As for `O=C(NN1CCOc2ccc(F)cc21)c1cnc2c(-c3cc(F)cc(F)c3F)c(F)ccc2c1N1CCOCC1` [Example 5.83, 7-fluoro-N-(6-fluoro-2,3-dihydro-1,4-benzoxazin-4-yl)-4-morpholino-8-(2,3,5-trifluorophenyl)quinoline-3-carboxamide], the EC50 is less than 0.1 µg/mL in experiment [1], less than 100 nM at D. immitis Slo-1, less than 0.1 µg/mL in experiment [2] and less than 0.1 µg/mL in experiment [3]. As to `O=C(NN1CCOc2ccc(F)cc21)c1cnc2c(-c3cc(F)cc(F)c3F)c(F)ccc2c1C1CS(=O)(=O)C1` [Example 5.106, 4-(1,1-dioxidothietan-3-yl)-7-fluoro-N-(6-fluoro-2,3-dihydro-4H-benzo[b][1,4]oxazin-4-yl)-8-(2,3,5-trifluorophenyl)quinoline-3-carboxamide], the EC50 at D. immitis Slo-1 is 100 to 1000 nM; in experiment [2] it was less than 0.1 µg/mL. In the case of `O=C(NN1CCOc2ccccc21)c1cnc2c(-c3cc(C(F)(F)F)cc(F)c3F)c(F)ccc2c1C1CS(=O)(=O)C1` [Example 5.107, 8-(2,3-difluoro-5-(trifluoromethyl)phenyl)-N-(2,3-dihydro-4H-benzo[b][1,4]oxazin-4-yl)-4-(1,1-dioxidothietan-3-yl)-7-fluoroquinoline-3-carboxamide], the EC50 on D. immitis Slo-1 was 100 to 1000 nM; in experiment [2], less than 0.1 µg/mL. Take `CN(c1c(C(=O)NN2CCOc3ccccc32)cnc2c(-c3cc(F)cc(F)c3F)c(F)ccc12)C1CC(F)C1` (centres unmarked) [Example 5.87, N-(2,3-dihydro-1,4-benzoxazin-4-yl)-7-fluoro-4-[(3-fluorocyclobutyl)-methyl-amino]-8-(2,3,5-trifluorophenyl)quinoline-3-carboxamide]: the EC50 in experiment [2] is less than 0.1 µg/mL. In the case of `O=C1CC(c2c(C(=O)NN3CCOc4ccccc43)cnc3c(-c4cc(F)cc(F)c4F)c(F)ccc23)C1` [Example 5.82, N-(2,3-dihydro-1,4-benzoxazin-4-yl)-7-fluoro-4-(3-oxocyclobutyl)-8-(2,3,5-trifluorophenyl)quinoline-3-carboxamide], the EC50 in experiment [1] is less than 0.1 µg/mL; at D. immitis Slo-1 it was less than 100 nM; in experiment [2], less than 0.1 µg/mL; in experiment [3], less than 0.1 µg/mL. Take `O=C(NN1CCOc2ccccc21)c1cnc2c(-c3cc(F)cc(F)c3F)c(F)c(F)cc2c1N1CCOCC1` [Example 5.105, N-(2,3-dihydro-4H-benzo[b][1,4]oxazin-4-yl)-6,7-difluoro-4-morpholino-8-(2,3,5-trifluorophenyl)quinoline-3-carboxamide]: at D. immitis Slo-1, the EC50 was less than 100 nM. Take `O=C(NN1CCOc2ccccc21)c1cnc2c(-c3cc(C(F)(F)F)cc(F)c3Br)cccc2c1N1CCOCC1` [Example 5.80, 8-[2-bromo-3-fluoro-5-(trifluoromethyl)phenyl]-N-(2,3-dihydro-1,4-benzoxazin-4-yl)-4-morpholino-quinoline-3-carboxamide]: the EC50 on D. immitis Slo-1 is less than 100 nM; in experiment [2], less than 0.1 µg/mL. On to `O=C(NN1CCOc2ccccc21)c1cnc2c(-c3cc(Cl)cc(F)c3F)c(F)ccc2c1N1CC(F)C1` [Example 5.79, 8-(5-chloro-2,3-difluoro-phenyl)-N-(2,3-dihydro-1,4-benzoxazin-4-yl)-7-fluoro-4-(3-fluoroazetidin-1-yl)quinoline-3-carboxamide], for which the EC50 on D. immitis Slo-1 was 100 to 1000 nM; in experiment [2], less than 0.1 µg/mL. As for `O=C(NN1CCOc2ccccc21)c1cnc2c(-c3cc(F)cc(F)c3F)c(F)ccc2c1C1CSC1` [Example 5.85, N-(2,3-dihydro-1,4-benzoxazin-4-yl)-7-fluoro-4-(thietan-3-yl)-8-(2,3,5-trifluorophenyl)quinoline-3-carboxamide], the figures for the concentration giving a half-maximal response (EC50) (on D. immitis Slo-1; in experiment [2]) were less than 100 nM and less than 0.1 µg/mL, respectively. Regarding `O=C(NN1CCOc2ccccc21)c1cnc2c(-c3cc(F)cc(F)c3F)c(F)ccc2c1N1C[C@@H](F)[C@@H](F)C1` (single isomer, unassigned) [Example 5.89, 4-(3,4-difluoropyrrolidin-1-yl)-N-(2,3-dihydro-1,4-benzoxazin-4-yl)-7-fluoro-8-(2,3,5-trifluorophenyl)quinoline-3-carboxamide], the EC50 was less than 100 nM at D. immitis Slo-1, less than 0.1 µg/mL in experiment [2] and less than 0.1 µg/mL in experiment [3]. Take `O=C(NN1CCOc2ccccc21)c1cnc2c(-c3cc(F)cc(F)c3F)c(F)ccc2c1C1CC(F)C1` (centres unmarked) [Example 5.101, N-(2,3-dihydro-4H-benzo[b][1,4]oxazin-4-yl)-7-fluoro-4-(3-fluorocyclobutyl)-8-(2,3,5-trifluorophenyl)quinoline-3-carboxamide]: on D. immitis Slo-1, the EC50 was less than 100 nM. `O=C(NN1CCOc2ccc(F)cc21)c1cnc2c(-c3cc(F)cc(F)c3F)c(F)ccc2c1C1CCOC1` (centres unmarked) [Example 5.97, 7-fluoro-N-(6-fluoro-2,3-dihydro-4H-benzo[b][1,4]oxazin-4-yl)-4-(tetrahydrofuran-3-yl)-8-(2,3,5-trifluorophenyl)quinoline-3-carboxamide]: the EC50 at D. immitis Slo-1 was less than 100 nM. For `O=C(NN1CCOc2ccccc21)c1cnc2c(-c3cc(F)cc(F)c3F)c(F)ccc2c1N1C[C@@H](F)[C@H](F)C1` [Example 5.92, 4-[(3R,4R)-3,4-difluoropyrrolidin-1-yl]-N-(2,3-dihydro-1,4-benzoxazin-4-yl)-7-fluoro-8-(2,3,5-trifluorophenyl)quinoline-3-carboxamide], the EC50 in experiment [2] and in experiment [3] was less than 0.1 µg/mL throughout. As to `Nc1c(Cl)cc(C(F)(F)F)cc1-c1cccc2c(N3CCOCC3)c(C(=O)NN3CCOc4ccccc43)cnc12` [Example 5.77, 8-[2-amino-3-chloro-5-(trifluoromethyl)phenyl]-N-(2,3-dihydro-1,4-benzoxazin-4-yl)-4-morpholino-quinoline-3-carboxamide], the EC50 at D. immitis Slo-1 was < 100 nM and 100 to 1000 nM. Same read-out and setting: to `N#Cc1c(Cl)cc(C(F)(F)F)cc1-c1cccc2c(N3CCOCC3)c(C(=O)NN3CCOc4ccccc43)cnc12` [Example 5.76, 8-[3-chloro-2-cyano-5-(trifluoromethyl)phenyl]-N-(2,3-dihydro-1,4-benzoxazin-4-yl)-4-morpholino-quinoline-3-carboxamide] belongs 100 to 1000 nM.
